Laboratory results published in patent US7060875B2, “Methods for delaying leaf senescence using the ORE7 gene” (Postech Foundation, priority 2001, dated 2006).
Entries after “also recorded” stand apart in the source; their conditions may differ.

Key:
[1] = system: wild type Arabidopsis thaliana (Col); experiment: Northern blot analysis of SEN4 expression after phytohormone treatment; type: in vivo; conditions: wild type compared to ore7 mutant; 0, 3, 4 and 5 days after treatment
[2] = system: longevity-extended mutant ore7; type: in vivo, Arabidopsis thaliana; conditions: ore7 mutant leaves at 25 DAG; 50 μM ABA or 50 μM MeJA in MES buffer, or 4.5 μM ethylene gas; 22° C., continuous light
Experimental: (§1) In order to measure photosynthesis activity, a method of Oh et al. (Oh S. A. et al., Plant Mol. Biol., 30: 939, 1996), was used. First, leaves at the respective DAG were dark-treated for 15 minutes and measured for fluorescence of chlorophylls using Plant Efficiency Analyzer (Hansatech). The photosynthesis activity was expressed as photochemical efficiency of photosystem II (PS II) using a fluorescent property of chlorophylls. The photochemical efficiency was expressed as the ratio of maximum variable fluorescence (Fv) to maximum value of fluorescence (Fm) (Fv/Fm). As the ratio is increased, the photosynthesis activity improves.
(§2) Further, in the present invention, a change in leaf longevity of the ore7 mutant according to treatment with phytohormones, such as ABA, MeJA and ethylene that are involved in senescence regulation was examined by measuring changes in photosynthesis activity and chlorophyll content. 12 independent leaves at 25 DAG were floated in 2 ml of MES buffer containing 50 μM ABA or 50 μM MeJA. Treatment with ethylene was carried out by culturing Arabidopsis thaliana in a glass box containing 4.5 μM ethylene gas. As a negative control group, MES buffer not containing ABA or MeJA was used. The treatments with phytohormones as described above were carried out for three days at 22° C. with continuous exposure to light. The chlorophyll content and the photosynthesis activity were measured in the same manner as described in Example 2.

[3] = system: longevity-extended mutant ore7; type: in vivo, Arabidopsis thaliana; conditions: ore7 mutant leaves at 25 DAG; 50 μM ABA or 50 μM MeJA in MES buffer, or 4.5 μM ethylene gas; 22° C., continuous light; remark: listed apart in the source
Experimental: (§3) In order to measure the chlorophyll content, the respective sample leaves were boiled in 95% ethanol at 80° C., thereby extracting chlorophyll. The chlorophyll content was measured at absorbance of 648 nm and 664 nm, and expressed as chlorophyll concentration per fresh weight of leaves (Vermon et al., Anal. Chem., 32:1142–1150, 1960).
as §2

[4] = system: wild type Arabidopsis thaliana (Col); experiment: Photosynthesis activity (Fv/Fm of PS II) of leaves after phytohormone treatment; type: in vivo; conditions: wild type leaves at 25 DAG; 50 μM ABA or 50 μM MeJA in MES buffer, or 4.5 μM ethylene gas; 22° C., continuous light
Experimental: as §1, §2

[5] = system: wild type Arabidopsis thaliana (Col); experiment: Chlorophyll content of leaves after phytohormone treatment; type: in vivo; conditions: wild type leaves at 25 DAG; 50 μM ABA or 50 μM MeJA in MES buffer, or 4.5 μM ethylene gas; 22° C., continuous light
Experimental: as §3, §2

SMILES | expression of SEN4 gene [1] | change in photosynthesis activity [2] | reduction in chlorophyll content [3] | change in photosynthesis activity [4] | change in chlorophyll content [5]
CC/C=C\CC1C(=O)CCC1CC(=O)OC (stereo not drawn) [MeJA, methyl jasmonate] | highly increased | slight decrease | became blunt | significantly reduced; also recorded: rapidly decreased | significantly reduced
CC1=CC(=O)CC(C)(C)[C@@]1(O)/C=C/C(C)=C\C(=O)O [ABA, abscisic acid] | highly increased | slight decrease | became blunt | significantly reduced; also recorded: rapidly decreased | significantly reduced
C=C [ethylene] | highly increased | slight decrease | became blunt | significantly reduced; also recorded: rapidly decreased | significantly reduced
